The source made the active and inactive calls. No cut-off for these calls is given here.
Assays:
Staphylococcus aureus [1] = assay: Antibiofilm activity against Methicillin resistant Staphylococcus aureus ATCC 43300 assessed as inhibition of biofilm formation at 5 uM incubated for 48 hrs by crystal violet staining based microplate reader analysis; type: functional, organism-based
Staphylococcus aureus [2] = assay: Antibacterial activity against Methicillin resistant Staphylococcus aureus ATCC 43300 assessed as reduction in bacterial growth at 2 to 5 uM; type: functional, organism-based; conditions: dose 2-5 µM
Staphylococcus aureus [3] = assay: Antibacterial activity against Staphylococcus aureus infected in male Sprague-Dawley rat wound model assessed as wound closure at 2 uM administered every 2 days and measured on day 4 relative to control; type: functional; conditions: time 4 day
Staphylococcus aureus [4] = assay: Antibacterial activity against Methicillin resistant Staphylococcus aureus infected in male Sprague-Dawley rat wound model assessed as wound closure at 2 uM administered every 2 days and measured on day 10 (reference value: 66.84%); type: functional; conditions: time 10 day
Staphylococcus aureus [5] = assay: Antibacterial activity against Staphylococcus aureus infected in male Sprague-Dawley rat wound model assessed as wound healing at 2 uM administered every 2 days and measured after 10 days; type: functional, organism-based; conditions: time 10.0 day
Staphylococcus aureus [6] = assay: Antibacterial activity against Staphylococcus aureus infected in male Sprague-Dawley rat wound model assessed as wound healing with newly formed epidermal tissues at 2 uM administered every 2 days and measured after 10 days; type: functional, organism-based; conditions: time 10.0 day
Staphylococcus aureus [7] = assay: Antimicrobial activity against Staphylococcus aureus ATCC 29213 assessed as inhibition of microbial growth at 80 uM incubated for 10 hrs by spectrophotometric analysis; type: functional, organism-based
Staphylococcus aureus [8] = assay: Antimicrobial activity against Staphylococcus aureus ATCC 29213 assessed as appearance of deformed bacteria at 20 uM incubated for 2 hrs by SEM analysis; type: functional, organism-based
Staphylococcus aureus [9] = assay: Antimicrobial activity against Staphylococcus aureus ATCC 29213 assessed as reduction in bacterial survival at 20 uM incubated for 8 hrs by spectrophotometric analysis relative to control; type: functional
Staphylococcus aureus [10] = assay: Antimicrobial activity against Staphylococcus aureus ATCC 29213 assessed as appearance of wrinkled bacteria by measuring leakage at 20 uM incubated for 2 hrs by SEM analysis; type: functional, organism-based
Staphylococcus aureus [11] = assay: Antimicrobial activity against Staphylococcus aureus ATCC 29213 assessed as appearance of damaged bacteria by measuring leakage at 20 uM incubated for 2 hrs by SEM analysis; type: functional, organism-based
Staphylococcus aureus [12] = assay: Antimicrobial activity against Staphylococcus aureus ATCC 29213 assessed as large area of intracellular content at 20 uM incubated for 2 hrs by SEM analysis; type: functional, organism-based
Staphylococcus aureus [13] = assay: Antibiofilm activity against Staphylococcus aureus ATCC 29213 assessed as inhibition of biofilm formation at 5 uM incubated for 48 hrs by crystal violet staining based microplate reader analysis; type: functional, organism-based
Staphylococcus aureus [14] = assay: Antibiofilm activity against Staphylococcus aureus ATCC 29213 assessed as biofilm eradication at 10 uM incubated for 48 hrs by crystal violet staining based microplate reader analysis relative to control; type: functional
Staphylococcus aureus [15] = assay: Antibiofilm activity against Staphylococcus aureus ATCC 29213 assessed as damaged bacterial cells by measuring red fluorescence at 20 uM incubated for 12 hrs by SYTO9/PI staining based confocal laser scanning microscopic analysis; type: functional, organism-based
Staphylococcus aureus [16] = assay: Antibiofilm activity against Staphylococcus aureus ATCC 29213 assessed as increase in green fluorescence at 5 uM incubated for 12 hrs by SYTO9/PI staining based confocal laser scanning microscopic analysis; type: functional, organism-based
Staphylococcus aureus [17] = assay: Antimicrobial activity against Staphylococcus aureus ATCC 29213 assessed as intracellular content leakage at 20 uM incubated for 2 hrs by SEM analysis; type: functional, organism-based
[18] = tested on: Aggregatibacter actinomycetemcomitans; assay: Antibacterial activity against Actinobacillus actinomycetemcomitans ATCC 43717 incubated for 18 hrs; type: functional
Escherichia coli [19] = assay: Antibacterial activity against Escherichia coli ATCC 25922 incubated for 18 hrs; type: functional
Staphylococcus aureus [20] = assay: Antibacterial activity against Methicillin resistant Staphylococcus aureus ATCC 43300 incubated for 18 hrs; type: functional
Streptococcus mutans [21] = assay: Antibacterial activity against Streptococcus mutans ATCC 25175 incubated for 18 hrs; type: functional
[22] = Hemolytic activity in rabbit RBC assessed as hemolytic rate at 32 uM incubated for 1 hrs by spectrophotometric analysis; type: toxicity, cell-based, Oryctolagus cuniculus, Erythrocyte; conditions: red blood cells (RBC), read-out: Activity
MC3T3-E1 [23] = assay: Cytotoxicity against mouse MC3T3-E1 cells assessed as reduction in cell viability at 2 uM incubated for 2 days by CCK-8 assay relative to control; type: toxicity, cell-based; conditions: mc3t3-e1, 48 h, time 2 day
Staphylococcus aureus [24] = assay: Antimicrobial activity against Staphylococcus aureus ATCC 29213 assessed as inhibition of microbial growth at 5 uM incubated for 10 hrs by spectrophotometric analysis relative to control; type: functional; set-up: scale not given: the % may be the effect or the level left
Staphylococcus aureus [25] = assay: Antimicrobial activity against Staphylococcus aureus ATCC 29213 assessed as reduction in bacterial survival at 5 uM incubated for 2 hrs by spectrophotometric analysis relative to control; type: functional
Staphylococcus aureus [26] = assay: Antimicrobial activity against Staphylococcus aureus ATCC 29213 assessed as reduction in bacterial survival at 5 uM incubated for 4 hrs by spectrophotometric analysis relative to control; type: functional
Staphylococcus aureus [27] = assay: Antimicrobial activity against Staphylococcus aureus ATCC 29213 assessed as reduction in bacterial survival at 5 uM incubated for 8 hrs by spectrophotometric analysis relative to control; type: functional
Staphylococcus aureus [28] = assay: Antimicrobial activity against Staphylococcus aureus ATCC 29213 assessed as appearance of damaged bacteria at 5 uM incubated for 2 hrs by SEM analysis relative to control; type: functional
Staphylococcus aureus [29] = assay: Antimicrobial activity against Staphylococcus aureus ATCC 29213 assessed as disappearance of normal shape at 20 uM incubated for 2 hrs by SEM analysis; type: functional, organism-based
Staphylococcus aureus [30] = assay: Antimicrobial activity against Staphylococcus aureus ATCC 29213 assessed as appearance of intracellular content in whole area at 20 uM incubated for 2 hrs by SEM analysis; type: functional, organism-based
Staphylococcus aureus [31] = assay: Antibiofilm activity against Staphylococcus aureus ATCC 29213 assessed as inhibition of biofilm formation at 2 uM incubated for 48 hrs by crystal violet staining based microplate reader analysis; type: functional, organism-based
Staphylococcus aureus [32] = assay: Antibiofilm activity against Staphylococcus aureus ATCC 29213 assessed as disappearance of colony formation at 2 uM incubated for 48 hrs by crystal violet staining based microplate reader analysis; type: functional, organism-based
Staphylococcus aureus [33] = assay: Antibiofilm activity against Staphylococcus aureus ATCC 29213 assessed as damaged bacterial cells by measuring red fluorescence at 5 uM incubated for 12 hrs by SYTO9/PI staining based confocal laser scanning microscopic analysis; type: functional, organism-based
[34] = tested on: Aggregatibacter actinomycetemcomitans; assay: Bactericidal activity against Actinobacillus actinomycetemcomitans ATCC 43717 incubated for 18 hrs; type: functional
Escherichia coli [35] = assay: Bactericidal activity against Escherichia coli ATCC 25922 incubated for 18 hrs; type: functional
Staphylococcus aureus [36] = assay: Bactericidal activity against Methicillin resistant Staphylococcus aureus ATCC 43300 incubated for 18 hrs; type: functional
Streptococcus mutans [37] = assay: Bactericidal activity against Streptococcus mutans ATCC 25175 incubated for 18 hrs; type: functional
Streptococcus mutans [38] = assay: Antibiofilm activity against Streptococcus mutans ATCC 25175 assessed as inhibition of biofilm formation at 5 uM incubated for 48 hrs by crystal violet staining based microplate reader analysis; type: functional, organism-based
[39] = tested on: Aggregatibacter actinomycetemcomitans; assay: Antibiofilm activity against Actinobacillus actinomycetemcomitans ATCC 43717 assessed as inhibition of biofilm formation at 5 uM incubated for 48 hrs by crystal violet staining based microplate reader analysis; type: functional, organism-based
Staphylococcus aureus [40] = assay: Antibiofilm activity against Methicillin resistant Staphylococcus aureus ATCC 43300 assessed as reduction in colony count at 2 to 5 uM incubated for 24 hrs by CFU assay; type: functional, organism-based; conditions: dose 2-5 µM
MC3T3-E1 [41] = assay: Cytotoxicity against mouse MC3T3-E1 cells assessed as reduction in cell viability at > 10 uM incubated for 2 days by CCK-8 assay; type: toxicity, cell-based; conditions: mc3t3-e1, 48 h, time 2 day
Staphylococcus aureus [42] = assay: Antibacterial activity against Methicillin resistant Staphylococcus aureus infected in male Sprague-Dawley rat wound model assessed as wound closure at 2 uM administered every 2 days and measured on day 7 (reference value: 66.84%); type: functional; conditions: time 7 day

## CCn1cc(C(=O)O)c(=O)c2cc(F)c(N3CCNCC3)cc21
Staphylococcus aureus [1]
  Activity: Active; Weaker Inhibition Of Biofilm Observed
Staphylococcus aureus [2]
  Activity: inactive

## CO[C@@]1(NC(=O)Cc2cccs2)C(=O)N2C(C(=O)O)=C(COC(N)=O)CS[C@@H]21 [CEFOXITIN]
Staphylococcus aureus [1]
  Activity: Active; Weaker Inhibition Of Biofilm Observed
Staphylococcus aureus [3]
  Activity: 66.13%
Staphylococcus aureus [4]
  Activity: 77.35%
Staphylococcus aureus [5]
  Activity: Active
Staphylococcus aureus [6]
  Activity: Active
Staphylococcus aureus [2]
  Activity: inactive

## H-FGLDIIKKIAESF-NH2
Staphylococcus aureus [7]
  Activity: Active
Staphylococcus aureus [8]
  Activity: Active

## H-FGLKIIKKIAKSF-NH2
Staphylococcus aureus [9]
  Activity: 6.45%
Staphylococcus aureus [10]
  Activity: Active
Staphylococcus aureus [11]
  Activity: Active
Staphylococcus aureus [12]
  Activity: Active
Staphylococcus aureus [13]
  Activity: Active
Staphylococcus aureus [14]
  Activity: 100%
Staphylococcus aureus [15]
  Activity: Active
Staphylococcus aureus [16]
  Activity: inactive

## H-FLFDIIKKIAESG-NH2
Staphylococcus aureus [7]
  Activity: Active

## H-GLFDIIKKIAEFS-NH2
Staphylococcus aureus [8]
  Activity: Active

## H-GLFDIIKKIAESF-NH2
Staphylococcus aureus [17]
  Activity: Active
[18]
  MIC: ≥ 80 µM
Escherichia coli [19]
  MIC: ≥ 80 µM
Staphylococcus aureus [20]
  MIC: ≥ 80 µM
Streptococcus mutans [21]
  MIC: ≥ 80 µM
[22]
  hemolysis at 1 h, 32 µM: < 10%
MC3T3-E1 [23]
  Activity: 91.16%

## H-GLFKIIKKIAKSF-NH2
Staphylococcus aureus [24]
  Activity: 100%
Staphylococcus aureus [9]
  Activity: 6.7%
Staphylococcus aureus [25]
  Activity: 11.54%
Staphylococcus aureus [26]
  Activity: 8.89%
Staphylococcus aureus [27]
  Activity: 8.24%
Staphylococcus aureus [12]
  Activity: Active
Staphylococcus aureus [28]
  Activity: 100%
Staphylococcus aureus [29]
  Activity: Active
Staphylococcus aureus [30]
  Activity: Active
Staphylococcus aureus [31]
  Activity: Active
Staphylococcus aureus [32]
  Activity: Active
Staphylococcus aureus [15]
  Activity: Active
Staphylococcus aureus [33]
  Activity: Active
[18]
  MIC: ≤ 10 µM
Escherichia coli [19]
  MIC: ≤ 10 µM
Staphylococcus aureus [20]
  MIC: ≤ 10 µM
Streptococcus mutans [21]
  MIC: ≤ 10 µM
[34]
  MBC: ≤ 10 µM
Escherichia coli [35]
  MBC: ≤ 10 µM
Staphylococcus aureus [36]
  MBC: ≤ 10 µM
Streptococcus mutans [37]
  MBC: ≤ 10 µM
Streptococcus mutans [38]
  Activity: Active
[39]
  Activity: Active
Staphylococcus aureus [1]
  Activity: Active
Staphylococcus aureus [40]
  Activity: Active
[22]
  hemolysis at 1 h, 32 µM: < 10%
MC3T3-E1 [23]
  Activity: 85.49%
MC3T3-E1 [41]
  Activity: Toxic
Staphylococcus aureus [3]
  Activity: 68.16%
Staphylococcus aureus [4]
  Activity: 100%
Staphylococcus aureus [42]
  Activity: <=92.65%
Staphylococcus aureus [5]
  Activity: Active
Staphylococcus aureus [6]
  Activity: Active

## H-GLFKIIKKIAKSG-NH2
Staphylococcus aureus [8]
  Activity: Active

Source: ChEMBL document CHEMBL6182917, “Molecular-Level Strategy from Bottom-Up to Acquire High-Efficiency Antimicrobial Peptides” (J Med Chem, 2025)
